The values below are quoted from earlier work in patent publication US20030073219A1, “Crystal structure” (priority 2001, published 2003).

The target of this series is ApbA protein (ketopantoate reductase) (Salmonella typhimurium, UniProt P37402). The conditions noted are these: purified ApbA protein from S. typhimurium; substrate/cofactor KM; read-out: apparent KM.
ApbA protein (ketopantoate reductase), sequence (P37402 whole entry): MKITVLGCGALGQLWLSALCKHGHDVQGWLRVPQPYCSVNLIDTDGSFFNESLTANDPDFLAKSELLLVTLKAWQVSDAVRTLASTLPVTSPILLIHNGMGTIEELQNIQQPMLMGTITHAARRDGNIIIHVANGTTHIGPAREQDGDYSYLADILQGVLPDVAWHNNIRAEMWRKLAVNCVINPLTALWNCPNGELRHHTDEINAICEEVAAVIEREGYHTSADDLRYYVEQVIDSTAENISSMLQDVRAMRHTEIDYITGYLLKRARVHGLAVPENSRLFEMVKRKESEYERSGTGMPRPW

On to `NC(=O)C1=CN([C@@H]2O[C@H](COP(=O)(O)OP(=O)(O)OC[C@H]3O[C@@H](n4cnc5c(N)ncnc54)[C@H](OP(=O)(O)O)[C@@H]3O)[C@@H](O)[C@H]2O)C=CC1` [NADPH], for which the Km was 770 µM.

As for `CC(C)(CO)C(=O)C(=O)O` [ketopantoate], the Km was 740 µM.

By Km is commonly meant the concentration of substrate that gives half-maximal velocity.
